From article PMC5474940 (Biochemistry, 2017) come the findings set out here.

This experiment has as its system AcOSα-PaFSα. It counts as biochemical, Aspergillus clavatus. Particulars: read-out: AcOSα-PaFSα; labelled compound; 25 mM HEPES pH 8.0, 200 mM NaCl, 5 mM MgCl2, 30 °C; cyclase domain.

For `CC(C)=CCC/C(C)=C/CC/C(C)=C/CC/C(C)=C/COP(=O)(O)OP(=O)(O)O` [GGPP], the Km turned out to be 0.038 ± 0.01 µM.
